Results: ChEMBL document CHEMBL1154960, “Development of improved inhibitors of wall teichoic acid biosynthesis with potent activity against Staphylococcus aureus” (Bioorg Med Chem Lett, 2010)
≈ marks a conversion by molar mass, not a printed value. Calls of active or inactive are those of the source. No cut-off for these calls is given here.

Columns and labels:
Staphylococcus aureus [1] = test: Antibacterial activity against tarO deficient Staphylococcus aureus RN4220 assessed as growth inhibition at 100 uM after 12 hrs by optical density plate reader method; type: functional; details: RN4220, 12 h, read-out: GI
Staphylococcus aureus [2] = test: Antibacterial activity against Staphylococcus aureus RN4220 assessed as growth inhibition at 100 uM after 12 hrs by optical density plate reader method; type: functional
Staphylococcus aureus [3] = test: Antibacterial activity against Staphylococcus aureus RN4220 assessed as cell survival at 100 uM after 12 hrs by optical density plate reader method; type: functional; details: RN4220, 12 h
Staphylococcus aureus [4] = test: Antibacterial activity against tarO deficient Staphylococcus aureus RN4220 assessed as cell survival at 100 uM after 12 hrs by optical density plate reader method; type: functional; details: RN4220, 12 h
Staphylococcus aureus [5] = test: Antibacterial activity against Staphylococcus aureus RN4220 after 12 hrs by optical density plate reader method; type: functional
Staphylococcus aureus [6] = test: Antibacterial activity against tarO deficient Staphylococcus aureus RN4220 after 12 hrs by optical density plate reader method; type: functional; details: RN4220, 12 h
Staphylococcus aureus [7] = test: Antibacterial activity against Staphylococcus aureus RN4220 after 12 hrs by optical density plate reader method in presence of 50% fetal bovine serum; type: functional
Staphylococcus aureus [8] = test: Antibacterial activity against methicillin-resistant Staphylococcus aureus COL after 12 hrs by optical density plate reader method; type: functional
Mus musculus [9] = test: Toxicity in CD1 mouse at 100 mg/kg, iv; type: organism-based; parameters: dose 100 mg/kg, route intravenous; details: in vivo
Staphylococcus aureus [10] = test: Antibacterial activity against methicillin-sensitive Staphylococcus aureus RN6390 after 12 hrs by optical density plate reader method; type: functional; details: RN6390, 12 h
Staphylococcus aureus [11] = test: Antibacterial activity against methicillin-resistant Staphylococcus aureus MW2 after 12 hrs by optical density plate reader method; type: functional; details: MW2, 12 h
Staphylococcus aureus [12] = test: Antibacterial activity against methicillin-sensitive Staphylococcus aureus Newman after 12 hrs by optical density plate reader method; type: functional
Mus musculus [13] = test: Toxicity in CD1 mouse at 75 mg/kg, iv after 24 hrs; type: organism-based; parameters: dose 75 mg/kg, route intravenous; details: in vivo
Staphylococcus aureus [14] = test: Bacteriostatic activity against Staphylococcus aureus RN4220 assessed as reduction in CFU at 8 times MIC up to 8 hrs by kill curve analysis; type: functional, organism-based
[15] = Staphylococcus aureus, RN4220, 12 h, read-out: GI
[16] = Staphylococcus aureus, RN4220, 12 h, read-out: MIC

SMILES | inhibition of growth at 100 µM (Staphylococcus aureus [1]) [%] | survival at 100 µM (Staphylococcus aureus [3]) [%] | survival at 100 µM (Staphylococcus aureus [4]) [%] | also measured
CCN(CC)c1nc2c(S(=O)(=O)c3ccccc3)nnn2c2ccc(F)cc12 | < 30 | – | – | inhibition of growth at 100 µM (Staphylococcus aureus [2]; [15]): > 31%
Cn1c(=O)c2c(-c3ccc(Cl)cc3)n3c(c2n(C)c1=O)C(c1ccccc1)Nc1ccccc1-3 (centres undefined) | – | 65 | 74 | –
CCN(CC)c1nc2c(S(=O)(=O)c3ccccc3)nnn2c2cc(OC)ccc12 | > 31 | – | – | inhibition of growth at 100 µM (Staphylococcus aureus [2]; [15]): > 31%
CCN(CC)c1nc2c(S(=O)(=O)c3ccccc3)nnn2c2cc3c(cc12)OCCO3 | < 30 | – | – | inhibition of growth at 100 µM (Staphylococcus aureus [2]; [15]): < 30%
CCN(CC)c1nc2c(S(=O)(=O)c3ccccc3)nnn2c2ccc(C)cc12 | < 30 | – | – | MIC (Staphylococcus aureus [5]; [16]): 25 µM (≈ 9.89 µg/mL)
CCN(CC)c1nc2c(S(=O)(=O)c3ccccc3)nnn2c2ccc(Br)cc12 | – | – | – | MIC (Staphylococcus aureus [5]; [16]): 12.5 µM (≈ 5.75 µg/mL)
CCN(CC)c1nc2c(S(=O)(=O)c3ccccc3)nnn2c2c(Cl)cccc12 | < 30 | – | – | inhibition of growth at 100 µM (Staphylococcus aureus [2]; [15]): < 30%
CCCN(CCC)c1nc2c(S(=O)(=O)c3ccc(C)cc3)nnn2c2cc(OC)c(OC)cc12 | – | – | – | MIC (Staphylococcus aureus [5]; [16]): 6.3 µM (≈ 3.05 µg/mL)
Cn1c(=O)c2c(-c3ccccc3)n3c(c2n(C)c1=O)C(c1ccc(F)cc1)Nc1ccccc1-3 (centres undefined) | – | 26 | 48 | –
COc1ccc(O)c(C2Nc3ccccc3-n3c(-c4ccccc4)c4c(=O)n(C)c(=O)n(C)c4c32)c1 (centres undefined) | – | 20 | 40 | –
CCOCCN(CCOCC)c1nc2c(S(=O)(=O)c3ccc(C)cc3)nnn2c2cc(OC)c(OC)cc12 | – | – | – | inhibition of growth at 100 µM (Staphylococcus aureus [2]; [15]): 31%
COc1ccc(-c2c3c(=O)n(C)c(=O)n(C)c3c3n2-c2ccccc2NC3c2ccco2)cc1 (centres undefined) | – | 57 | 69 | –
Cn1c(=O)c2c(-c3ccccc3)n3c(c2n(C)c1=O)C(c1ccccc1[N+](=O)[O-])Nc1ccccc1-3 (centres undefined) | – | 79 | 86 | –
Cc1ccc(-c2c3c(=O)n(C)c(=O)n(C)c3c3n2-c2ccccc2NC3c2ccc(C#N)cc2)cc1 (centres undefined) | – | 95 | 81 | –
Cc1cc2c(cc1C)-n1c(-c3ccccc3)c3c(=O)n(C)c(=O)n(C)c3c1C(c1ccco1)N2 (centres undefined) | – | 94 | 103 | –
COc1ccccc1C1Nc2ccccc2-n2c(-c3ccccc3)c3c(=O)n(C)c(=O)n(C)c3c21 (centres undefined) | – | 85 | 123 | –
COc1cc2c(N3CCc4ccccc4C3)nc3c(S(=O)(=O)c4ccc(C)cc4)nnn3c2cc1OC | > 70 | – | – | inhibition of growth at 100 µM (Staphylococcus aureus [2]; [15]): 31%
Cn1c(=O)c2c(-c3ccccc3)n3c(c2n(C)c1=O)C(c1ccc([N+](=O)[O-])cc1)Nc1ccccc1-3 (centres undefined) | – | 49 | 73 | –
Cn1c(=O)c2c(-c3ccccc3)n3c(c2n(C)c1=O)C(c1cccc([N+](=O)[O-])c1)Nc1ccccc1-3 (centres undefined) | – | 64 | 74 | –
CCCCN(CC)c1nc2c(S(=O)(=O)c3ccc(C)cc3)nnn2c2cc(OC)c(OC)cc12 | – | – | – | MIC (Staphylococcus aureus [5]; [16]): 3.1 µM (≈ 1.5 µg/mL)
CCN(CC)c1nc2c(S(=O)(=O)c3ccc(C)cc3)nnn2c2cc(OC)c(OC)cc12 | < 30 | – | – | MIC (Staphylococcus aureus [5]; [16]): 2.5 µM (≈ 1.14 µg/mL)
CCN(c1nc2c(S(=O)(=O)c3ccc(C)cc3)nnn2c2cc(OC)c(OC)cc12)C(C)C | – | – | – | MIC (Staphylococcus aureus [5]; [16]): 1.6 µM (≈ 0.751 µg/mL)
CCN(CC)c1nc2c(S(=O)(=O)c3ccccc3)nnn2c2cc([N+](=O)[O-])ccc12 | – | – | – | MIC (Staphylococcus aureus [5]; [16]): 100 µM (≈ 42.6 µg/mL); MIC (Staphylococcus aureus [6]): 50 µM (≈ 21.3 µg/mL)

SMILES | inhibition of growth at 100 µM (Staphylococcus aureus [1]) [%] | survival at 100 µM (Staphylococcus aureus [3]) [%] | survival at 100 µM (Staphylococcus aureus [4]) [%] | also measured
CCCN(CCOC)c1nc2c(S(=O)(=O)c3ccc(C)cc3)nnn2c2cc(OC)c(OC)cc12 | – | – | – | inhibition of growth at 100 µM (Staphylococcus aureus [2]; [15]): 31%
Cn1c(=O)c2c(-c3ccccc3)n3c(c2n(C)c1=O)C(c1ccco1)Nc1ccccc1-3 (centres undefined) | – | 100 | 98 | –
Cc1ccc(C2Nc3ccccc3-n3c(-c4ccccc4)c4c(=O)n(C)c(=O)n(C)c4c32)cc1 (centres undefined) | – | 4 | 70 | –
Cc1ccc(-c2c3c(=O)n(C)c(=O)n(C)c3c3n2-c2ccccc2NC3c2ccc(C)cc2O)cc1 (centres undefined) | – | 34 | 64 | –
CCN(c1nc2c(S(=O)(=O)c3ccc(Cl)cc3)nnn2c2cc(OC)c(OC)cc12)C(C)C | < 30 | – | – | MIC (Staphylococcus aureus [5]; [16]): 2.5 µM (≈ 1.22 µg/mL)
Cc1ccc(C2Nc3cc(C)c(C)cc3-n3c(-c4ccccc4)c4c(=O)n(C)c(=O)n(C)c4c32)o1 (centres undefined) | – | 95 | 92 | –
Cn1c(=O)c2c(-c3ccccc3)n3c(c2n(C)c1=O)C(c1cc(Cl)ccc1O)Nc1ccccc1-3 (centres undefined) | – | 35 | 78 | –
COc1ccc(-c2c3c(=O)n(C)c(=O)n(C)c3c3n2-c2ccccc2NC3c2ccc(OC)cc2)cc1 (centres undefined) | – | 93 | 88 | –
CCN(CC)c1nc2c(S(=O)(=O)c3ccccc3)nnn2c2cc(Cl)ccc12 | < 30 | – | – | inhibition of growth at 100 µM (Staphylococcus aureus [2]; [15]): < 30%
COc1ccc(C2Nc3ccccc3-n3c(-c4ccccc4)c4c(=O)n(C)c(=O)n(C)c4c32)cc1 (centres undefined) | – | 37 | 81 | –
CCN(CC)c1nc2c(S(=O)(=O)c3ccccc3)nnn2c2cc(C)ccc12 | < 30 | – | – | inhibition of growth at 100 µM (Staphylococcus aureus [2]; [15]): < 30%
COc1cc2c(N3CCN(c4ccccc4)CC3)nc3c(S(=O)(=O)c4ccc(C)cc4)nnn3c2cc1OC | > 70 | – | – | inhibition of growth at 100 µM (Staphylococcus aureus [2]; [15]): > 31%
CCN(CC)c1nc2c(S(=O)(=O)c3ccccc3)nnn2c2cc(Br)ccc12 | – | – | – | inhibition of growth at 100 µM (Staphylococcus aureus [2]; [15]): > 31%; MIC (Staphylococcus aureus [6]): 100 µM (≈ 46 µg/mL)
CCN(CC)c1nc2c(S(=O)(=O)c3ccccc3)nnn2c2ccc([N+](=O)[O-])cc12 | – | – | – | inhibition of growth at 100 µM (Staphylococcus aureus [2]): > 31%
COc1ccc(-c2c3c(=O)n(C)c(=O)n(C)c3c3n2-c2ccccc2NC3c2cc(O)ccc2O)cc1 (centres undefined) | – | 0 | 26 | –
CCN(CC)c1nc2c(S(=O)(=O)c3ccc(Cl)cc3)nnn2c2cc(OC)c(OC)cc12 | < 30 | – | – | fold change (FC) (Staphylococcus aureus [7]): 8; MIC (Staphylococcus aureus [5]; [16]): 0.3 µM (≈ 0.143 µg/mL); MIC (Staphylococcus aureus [8]): 0.6 µM (≈ 0.286 µg/mL); Activity (Mus musculus [9]): Toxic; MIC (Staphylococcus aureus [10]): 0.3 µM (≈ 0.143 µg/mL); MIC (Staphylococcus aureus [11]): 0.6 µM (≈ 0.286 µg/mL); MIC (Staphylococcus aureus [12]): 0.3 µM (≈ 0.143 µg/mL); Activity (Mus musculus [13]): Non-toxic
CCN(CC)c1nc2c(S(=O)(=O)c3ccccc3)nnn2c2ccc(Cl)cc12 | < 30 | – | – | Activity (Staphylococcus aureus [14]): Active; MIC (Staphylococcus aureus [5]; [16]): 3.6 µM (≈ 1.5 µg/mL); MIC (Staphylococcus aureus [8]): 6.3 µM (≈ 2.62 µg/mL); MIC (Staphylococcus aureus [10]): 6.3 µM (≈ 2.62 µg/mL); MIC (Staphylococcus aureus [11]): 6.3 µM (≈ 2.62 µg/mL); MIC (Staphylococcus aureus [12]): 12.5 µM (≈ 5.2 µg/mL)
CCN(CC)c1nc2c(S(=O)(=O)c3ccccc3)nnn2c2cc(OC)c(OC)cc12 | < 30 | – | – | MIC (Staphylococcus aureus [5]; [16]): 1.8 µM (≈ 0.795 µg/mL); MIC (Staphylococcus aureus [8]): 3.1 µM (≈ 1.37 µg/mL); MIC (Staphylococcus aureus [10]): 3.1 µM (≈ 1.37 µg/mL); MIC (Staphylococcus aureus [11]): 3.1 µM (≈ 1.37 µg/mL); MIC (Staphylococcus aureus [12]): 3.1 µM (≈ 1.37 µg/mL)
COc1cc2c(N3CCCCC3)nc3c(S(=O)(=O)c4ccc(C)cc4)nnn3c2cc1OC | – | – | – | inhibition of growth at 100 µM (Staphylococcus aureus [2]; [15]): > 31%
Cc1ccc(C2Nc3ccccc3-n3c(-c4ccccc4)c4c(=O)n(C)c(=O)n(C)c4c32)o1 (centres undefined) | – | 101 | 110 | –
COc1ccc(-c2c3c(=O)n(C)c(=O)n(C)c3c3n2-c2ccccc2NC3c2ccccc2OC)cc1 (centres undefined) | – | 67 | 85 | –
CCN(CC)c1nc2c(S(=O)(=O)c3ccccc3)nnn2c2ccc(OC)cc12 | – | – | – | MIC (Staphylococcus aureus [5]): 25 µM (≈ 10.3 µg/mL)
CCN(CC)c1nc2c(S(=O)(=O)c3ccccc3)nnn2c2cccc(Cl)c12 | < 30 | – | – | inhibition of growth at 100 µM (Staphylococcus aureus [2]; [15]): < 30%
